From patent US20250236599A1, “LIPID NANOPARTICLES FOR OLIGONUCLEOTIDE DELIVERY” (ZIPHIUS NV, priority 2021, published 2025)

Key:
[1] = saRNA loading / encapsulation efficiency, Quant-IT RiboGreen assay; format: physicochemical; settings: LNP lipid:DOPE:Cholesterol:DMG-PEG 35:20:43.5:1.5, firefly luciferase saRNA
[2] = Weight evolution of the animals following administration of LNPs; format: in vivo; settings: female SWISS mice
[3] = test system: expression of the luciferase saRNA; test: In vivo bioluminescent imaging after intramuscular injection of LNP-formulated luciferase saRNA; settings: 1 μg LNP-formulated luciferase saRNA intramuscularly, female SWISS mice
[4] = LNP particle size, polydispersity index and charge by Zeta Sizer; format: physicochemical; settings: LNP lipid:DOPE:Cholesterol:DMG-PEG 35:20:43.5:1.5, firefly luciferase saRNA

SMILES: CCCCCCCCC(CCCCCC)C(=O)OCCCCCCN(CCCCCCOC(=O)C(CCCCCC)CCCCCCCC)CCN1CCN(CCN(CCCCCCOC(=O)C(CCCCCC)CCCCCCCC)CCCCCCOC(=O)C(CCCCCC)CCCCCCCC)CC1 (stereo not shown) [Compound 9-37, ((piperazine-1,4-diylbis(ethane-2,1-diyl))bis(azanetriyl)) tetrakis(hexane-6,1-diyl) tetrakis(2-hexyldecanoate)]
- Encapsulation (%) [1]: 92.32%
- Weight ([2]; Day 0): 28.21 g
- Weight ([2]; Day 1, 1 μg LNP-formulated saRNA intramuscularly): 26.73 g
- Weight ([2]; Day 3, 1 μg LNP-formulated saRNA intramuscularly): 28.81 g
- Weight ([2]; Day 5, 1 μg LNP-formulated saRNA intramuscularly): 28.84 g
- Weight ([2]; Day 7, 1 μg LNP-formulated saRNA intramuscularly): 28.84 g
- Weight ([2]; Day 10, 1 μg LNP-formulated saRNA intramuscularly): 29.36 g
- Weight ([2]; Day 15, 1 μg LNP-formulated saRNA intramuscularly): 30.63 g
- Weight ([2]; Day 20, 1 μg LNP-formulated saRNA intramuscularly): 31.61 g
- Bioluminescence expression of LNPs ([3]; Day 1): 1.07E+07
- Bioluminescence expression of LNPs ([3]; Day 3): 2.06E+08
- Bioluminescence expression of LNPs ([3]; Day 5): 4.17E+08
- Bioluminescence expression of LNPs ([3]; Day 7): 3.54E+08
- Bioluminescence expression of LNPs ([3]; Day 10): 2.11E+06
- Bioluminescence expression of LNPs ([3]; Day 15): 7.50E+04
- Bioluminescence expression of LNPs ([3]; Day 20): 2.65E+04
- Zetapotential (mV) [4]: −9.93 mV
- Polydispersity Index (PI) ([4]; N/P approx. 40/1): 0.27
- Z-average (nm) ([4]; N/P approx. 40/1): 89.43 nm
